Assay results from PubChem BioAssay AID2060894 (Molecular Pharmacology Branch, DTP, NCI, 2025).
Values belong to the compound of their own block, whether it stands above or below them.

Tested on: K12877-001-R-J1-PDC complex spheroid viability
Assay: Anticancer human tumor K12877-001-R-J1-PDC patient-derived lung adenocarcinoma cell line growth inhibition [RAS]
Settings: for IC50: curve of first compound; for viability, T/C: stronger effect = lower value
Summary of the method: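 Multi-cell-type spheroids: tumor cells plus HUVEC endothelial cells and mesenchymal stem cells. RAS-pathway inhibitors were combined with targeted agents, each dosed in half-log steps down from clinical Cmax, or from 10 microM when Cmax was unknown.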
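Note: spheroids exposed to agents for one week before readout.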
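Throughout, for viability, T/C: tumour cells co-cultured with HUVEC and mesenchymal stem cells in spheroids.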

IC50 (second compound 0.000949 µM): 300 nM
IC50 (second compound 0.003 µM): 239 nM
IC50 (second compound 0.00949 µM): 144 nM
IC50 (second compound 0.03 µM): 227 nM
IC50 (second compound 0.0949 µM): 129 nM
IC50 (second compound 0.3 µM): 58.7 nM
Compound: O=C(c1ccc(F)c(F)c1Nc1ccc(I)cc1F)N1CC(O)([C@@H]2CCCCN2)C1 + CCn1c(-c2cccnc2C(C)OC)c2c3cc(ccc31)N1CCOC(CC(NC(=O)C(C(C)C)N(C)C(=O)C3(F)CCN(C(=O)C#CC(C)(C)N(C)C)CC3)C(=O)N3CCCC(N3)C(=O)OCC(C)(C)C2)C1
viability, T/C (second compound 0.000949 µM, first compound 0.00316 µM): 81.2%
viability, T/C (second compound 0.000949 µM, first compound 0.01 µM): 77.5%
viability, T/C (second compound 0.000949 µM, first compound 0.0316 µM): 80.8%
viability, T/C (second compound 0.000949 µM, first compound 0.1 µM): 66.5%
viability, T/C (second compound 0.000949 µM, first compound 0.316 µM): 49.9%
viability, T/C (second compound 0.000949 µM, first compound 1 µM): 35.4%
viability, T/C (second compound 0.003 µM, first compound 0.00316 µM): 72.6%
viability, T/C (second compound 0.003 µM, first compound 0.01 µM): 69.8%
viability, T/C (second compound 0.003 µM, first compound 0.0316 µM): 67.5%
viability, T/C (second compound 0.003 µM, first compound 0.1 µM): 66.8%
viability, T/C (second compound 0.003 µM, first compound 0.316 µM): 44.6%
viability, T/C (second compound 0.003 µM, first compound 1 µM): 28.6%
viability, T/C (second compound 0.00949 µM, first compound 0.00316 µM): 71.1%
viability, T/C (second compound 0.00949 µM, first compound 0.01 µM): 62.6%
viability, T/C (second compound 0.00949 µM, first compound 0.0316 µM): 70.7%
viability, T/C (second compound 0.00949 µM, first compound 0.1 µM): 55.4%
viability, T/C (second compound 0.00949 µM, first compound 0.316 µM): 37.7%
viability, T/C (second compound 0.00949 µM, first compound 1 µM): 32.7%
viability, T/C (second compound 0.03 µM, first compound 0.00316 µM): 66.1%
viability, T/C (second compound 0.03 µM, first compound 0.01 µM): 72.8%
viability, T/C (second compound 0.03 µM, first compound 0.0316 µM): 73.1%
viability, T/C (second compound 0.03 µM, first compound 0.1 µM): 59%
viability, T/C (second compound 0.03 µM, first compound 0.316 µM): 46.3%
viability, T/C (second compound 0.03 µM, first compound 1 µM): 28.9%
viability, T/C (second compound 0.0949 µM, first compound 0.00316 µM): 76.7%
viability, T/C (second compound 0.0949 µM, first compound 0.01 µM): 64.5%
viability, T/C (second compound 0.0949 µM, first compound 0.0316 µM): 69.5%
viability, T/C (second compound 0.0949 µM, first compound 0.1 µM): 45.9%
viability, T/C (second compound 0.0949 µM, first compound 0.316 µM): 44.3%
viability, T/C (second compound 0.0949 µM, first compound 1 µM): 33.9%
viability, T/C (second compound 0.3 µM, first compound 0.00316 µM): 70%
viability, T/C (second compound 0.3 µM, first compound 0.01 µM): 65.6%
viability, T/C (second compound 0.3 µM, first compound 0.0316 µM): 52.1%
viability, T/C (second compound 0.3 µM, first compound 0.1 µM): 45.6%
viability, T/C (second compound 0.3 µM, first compound 0.316 µM): 40.1%
viability, T/C (second compound 0.3 µM, first compound 1 µM): 31%

IC50 (second compound 0.0316 µM): < 31.6 nM
IC50 (second compound 0.1 µM): < 31.6 nM
IC50 (second compound 0.316 µM): < 31.6 nM
IC50 (second compound 1 µM): < 31.6 nM
IC50 (second compound 3.16 µM): < 31.6 nM
IC50 (second compound 10 µM): < 31.6 nM
Compound: CC(=O)OC12COC1CC(O)C1(C)C(=O)C(O)C3=C(C)C(OC(=O)C(O)C(NC(=O)OC(C)(C)C)c4ccccc4)CC(O)(C(OC(=O)c4ccccc4)C21)C3(C)C (stereo unspecified) + C#Cc1c(F)ccc2cc(O)cc(-c3ncc4c(N5CC6CCC(C5)N6)nc(OCC56CCCN5CC(F)C6)nc4c3F)c12
viability, T/C (second compound 0.0316 µM, first compound 0.0316 µM): 8.75%
viability, T/C (second compound 0.0316 µM, first compound 0.1 µM): 6.43%
viability, T/C (second compound 0.0316 µM, first compound 0.316 µM): 6.63%
viability, T/C (second compound 0.0316 µM, first compound 1 µM): 5.48%
viability, T/C (second compound 0.0316 µM, first compound 3.16 µM): 7.34%
viability, T/C (second compound 0.0316 µM, first compound 10 µM): 14.9%
viability, T/C (second compound 0.1 µM, first compound 0.0316 µM): 8.48%
viability, T/C (second compound 0.1 µM, first compound 0.1 µM): 6.66%
viability, T/C (second compound 0.1 µM, first compound 0.316 µM): 4.24%
viability, T/C (second compound 0.1 µM, first compound 1 µM): 5.34%
viability, T/C (second compound 0.1 µM, first compound 3.16 µM): 6.17%
viability, T/C (second compound 0.1 µM, first compound 10 µM): 16%
viability, T/C (second compound 0.316 µM, first compound 0.0316 µM): 9.56%
viability, T/C (second compound 0.316 µM, first compound 0.1 µM): 6.37%
viability, T/C (second compound 0.316 µM, first compound 0.316 µM): 5.39%
viability, T/C (second compound 0.316 µM, first compound 1 µM): 5.34%
viability, T/C (second compound 0.316 µM, first compound 3.16 µM): 6.63%
viability, T/C (second compound 0.316 µM, first compound 10 µM): 17.3%
viability, T/C (second compound 1 µM, first compound 0.0316 µM): 8.81%
viability, T/C (second compound 1 µM, first compound 0.1 µM): 6.46%
viability, T/C (second compound 1 µM, first compound 0.316 µM): 6.04%
viability, T/C (second compound 1 µM, first compound 1 µM): 5.11%
viability, T/C (second compound 1 µM, first compound 3.16 µM): 7.06%
viability, T/C (second compound 1 µM, first compound 10 µM): 18.1%
viability, T/C (second compound 3.16 µM, first compound 0.0316 µM): 7.54%
viability, T/C (second compound 3.16 µM, first compound 0.1 µM): 5.83%
viability, T/C (second compound 3.16 µM, first compound 0.316 µM): 4.07%
viability, T/C (second compound 3.16 µM, first compound 1 µM): 4.99%
viability, T/C (second compound 3.16 µM, first compound 3.16 µM): 6.13%
viability, T/C (second compound 3.16 µM, first compound 10 µM): 15.7%
viability, T/C (second compound 10 µM, first compound 0.0316 µM): 5.58%
viability, T/C (second compound 10 µM, first compound 0.1 µM): 3.71%
viability, T/C (second compound 10 µM, first compound 0.316 µM): 4.04%
viability, T/C (second compound 10 µM, first compound 1 µM): 4.11%
viability, T/C (second compound 10 µM, first compound 3.16 µM): 5.73%
viability, T/C (second compound 10 µM, first compound 10 µM): 15.2%

IC50 (second compound 0.000949 µM): 4.82 nM
IC50 (second compound 0.003 µM): 4.39 nM
IC50 (second compound 0.00949 µM): 3.87 nM
IC50 (second compound 0.03 µM): 4.32 nM
IC50 (second compound 0.0949 µM): 3.81 nM
IC50 (second compound 0.3 µM): 2.73 nM
Compound: CCc1c2c(nc3ccc(O)cc13)-c1cc3c(c(=O)n1C2)COC(=O)[C@]3(O)CC + CCn1c(-c2cc(N3CCN(C)CC3)cnc2C(C)OC)c2c3cc(ccc31)-c1csc(n1)CC(NC(=O)C1CC1C)C(=O)N1CCCC(N1)C(=O)OCC(C)(C)C2
viability, T/C (second compound 0.000949 µM, first compound 0.000949 µM): 78.3%
viability, T/C (second compound 0.000949 µM, first compound 0.003 µM): 72.4%
viability, T/C (second compound 0.000949 µM, first compound 0.00949 µM): 18.2%
viability, T/C (second compound 0.000949 µM, first compound 0.03 µM): 7.02%
viability, T/C (second compound 0.000949 µM, first compound 0.0949 µM): 3.48%
viability, T/C (second compound 0.000949 µM, first compound 0.3 µM): 2.43%
viability, T/C (second compound 0.003 µM, first compound 0.000949 µM): 67.2%
viability, T/C (second compound 0.003 µM, first compound 0.003 µM): 68.8%
viability, T/C (second compound 0.003 µM, first compound 0.00949 µM): 13.6%
viability, T/C (second compound 0.003 µM, first compound 0.03 µM): 6.6%
viability, T/C (second compound 0.003 µM, first compound 0.0949 µM): 4.13%
viability, T/C (second compound 0.003 µM, first compound 0.3 µM): 2.12%
viability, T/C (second compound 0.00949 µM, first compound 0.000949 µM): 71.6%
viability, T/C (second compound 0.00949 µM, first compound 0.003 µM): 59.8%
viability, T/C (second compound 0.00949 µM, first compound 0.00949 µM): 15.8%
viability, T/C (second compound 0.00949 µM, first compound 0.03 µM): 6.3%
viability, T/C (second compound 0.00949 µM, first compound 0.0949 µM): 3.36%
viability, T/C (second compound 0.00949 µM, first compound 0.3 µM): 1.64%
viability, T/C (second compound 0.03 µM, first compound 0.000949 µM): 84.9%
viability, T/C (second compound 0.03 µM, first compound 0.003 µM): 67.8%
viability, T/C (second compound 0.03 µM, first compound 0.00949 µM): 11.5%
viability, T/C (second compound 0.03 µM, first compound 0.03 µM): 6.66%
viability, T/C (second compound 0.03 µM, first compound 0.0949 µM): 2.86%
viability, T/C (second compound 0.03 µM, first compound 0.3 µM): 1.43%
viability, T/C (second compound 0.0949 µM, first compound 0.000949 µM): 94.8%
viability, T/C (second compound 0.0949 µM, first compound 0.003 µM): 59.5%
viability, T/C (second compound 0.0949 µM, first compound 0.00949 µM): 13.8%
viability, T/C (second compound 0.0949 µM, first compound 0.03 µM): 5.27%
viability, T/C (second compound 0.0949 µM, first compound 0.0949 µM): 3.05%
viability, T/C (second compound 0.0949 µM, first compound 0.3 µM): 1.38%
viability, T/C (second compound 0.3 µM, first compound 0.000949 µM): 85.1%
viability, T/C (second compound 0.3 µM, first compound 0.003 µM): 46.9%
viability, T/C (second compound 0.3 µM, first compound 0.00949 µM): 9.52%
viability, T/C (second compound 0.3 µM, first compound 0.03 µM): 4.79%
viability, T/C (second compound 0.3 µM, first compound 0.0949 µM): 3.58%
viability, T/C (second compound 0.3 µM, first compound 0.3 µM): 1.11%
